Reference: PubChem BioAssay AID1963831 (Molecular Pharmacology Branch, DTP, NCI, 2024)
pIC50: −log10 of the molar value. Several values for one entry are separate records, joined by “and”; a condition that tells them apart may be missing. Equal entries are not always repeated.

System: 889142-216-R-J1-PDC complex spheroid viability
Assay: Anticancer human tumor 889142-216-R-J1-PDC patient-derived bladder carcinoma cell line growth inhibition [POLQ]
Settings: for viability, T/C: stronger effect = lower value; active = viability on the fitted dose curve at most 10% of control; inactive = the rest
Experimental: Multicellular complex tumor spheroid response to Polymerase (POL) inhibitors (novobiocin, ART-558, RP6685) in combination with a variety of drugs and investigational agents in selected tumor cell lines
The POL inhibitors (novobiocin, ART-558, and RP6685) were evaluated both individually and in combination with standard of care and investigational anticancer small molecules within a complex spheroid model of solid tumors. . Complex spheroids include a stromal component modeled by human endothelial cells (HUVEC) and fibroblasts modeled by human mesenchymal stem cells (MSCs). The concentration ranges selected for each drug and investigational agent were based upon clinically achievable concentrations if the clinical Cmax of the agent was known.
Compounds. The drugs and investigational agents: novobiocin (NSC847541), ART-558 (NSC835418), RP-6685 (NSC848927), peposertib (NSC802822), ceralasertib (NSC780249), elimusertib (NSC800525), camonsertib (NSC841442), AZD-1390 (NSC803789), olaparib (NSC753686), talazoparib (NSC767125), rucaparib (NSC756644), sotorasib (NSC818433), MRTX-1133 (NSC836407), SN-38 (NSC673596), topotecan (NSC609699), epotoside (NSC141540), doxorubicin (NSC123127), gemcitabine (NSC613327), 5-fluorouracil (NSC19893), paclitaxel (NSC125973), vemurafenib (NSC761431), MSA-2 (NSC828583), SN-011 (NSC837082), adavosertib (NSC754352), prexasertib (NSC758257), carboplatin (NSC241240) and oxaliplatin (NSC266046), were obtained from the National Cancer Institute (NCI) Developmental Therapeutics Program Chemical Repository (21). The FDA-approved anticancer drug set is available from the Developmental Therapeutics Program at https://dtp.cancer.gov/organization/dscb/obtaining/. […] The stock solutions were prepared in dimethyl sulfoxide (DMSO, Sigma-Aldrich, St. Louis, MO, cat. D2650), except for the platinum compounds which were prepared in saline (Quality Biological, Gaithersburg, MD, cat. 114-055-101), at 800-fold the tested concentration and stored at -70 degrees C prior to their use. All drugs and investigational agents were tested over a range starting from a high concentration at or near the clinical Cmax and decreasing in half-log increments. If the clinical Cmax for an agent had not been determined, the highest concentration tested was 10 microM, except for SN-38, which was tested at a high concentration of 1 microM.
Cell Culture. All cells were maintained in an incubator at 37 degrees C and 5% CO2 with 95% humidity. The PDC lines were cultured according to standard operating procedures established by the NCI PDMR (https://pdmr.cancer.gov). Table 3 of the manuscript, lists the cell lines along with the number of the three cell types plated to form the mct-spheroids and media for tumor cell growth. After thawing, all PDC lines, except 997537-175-T-J1-PDC and 415267-285-R-J2-PDC, were cultured in Matrigel-coated flasks prepared with a working solution of 1X Ham's F-12 nutrient mix, without supplementation (Thermo Fisher Scientific, cat. 11765054), 100 U/mL penicillin-streptomycin (Thermo Fisher Scientific, cat. 15140122), and 2.5% Matrigel (Corning Inc., Corning, NY, cat. 354248) for the first three passages. The two PDC lines 997537-175-T-J1-PDC and 415267-285-R-J2-PDC were cultured on uncoated flasks. The 857933-349-R-J2-PDC line was cultured in 6C/Colon 1B media containing advanced DMEM/F-12 (Thermo Fisher Scientific, cat. 12634028), 10 mM HEPES (Thermo Fisher Scientific, cat. 15630080), 1X GlutaMAX supplement (Thermo Fisher Scientific, cat. 35050061), 0.1 mg/mL primocin (InvivoGen, San Diego, CA, cat. ant-pm-2), 10% defined fetal bovine serum, heat inactivated (HyClone Laboratories Inc., Logan, UT, cat. SH30070.03HI), 50% L-WRN conditioned media (ATCC, cat. CRL-3276), 1.25 mM N-Acetyl-L-cysteine (Sigma-Aldrich, cat. A9165), 10 mM nicotinamide (Sigma-Aldrich, cat. N0636), 1X B-27 supplement (Thermo Fisher Scientific, cat. 17504044), 1X N-2 supplement (Thermo Fisher Scientific, cat. […]
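Also: spheroids exposed to compounds for seven days.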

COC1C(OC(N)=O)C(O)C(Oc2ccc3c(O)c(NC(=O)c4ccc(O)c(CC=C(C)C)c4)c(=O)oc3c2C)OC1(C)C (configuration not stated)
inactive: viability, T/C (compound 0.0316 µM) 109% [middle of 12 runs] | viability, T/C (compound 0.316 µM) 94.6% [middle of 12 runs]
< 5.00: pIC50 (compound alone, run of 01/08/2024)

CCc1cc2c(N3CCc4c(cc(Cn5ccnc5)cc4-c4cn(C)nc4C(F)(F)F)C3=O)ccnc2c(OC)n1
< 5.00: pIC50 (curve of compound)
inactive: viability, T/C (compound 0.0316 µM) 127% and 103% and 138% | viability, T/C (compound 0.1 µM) 115% and 101% and 105% | viability, T/C (compound 0.316 µM) 123% and 106% (2×) | viability, T/C (compound 1 µM) 116% and 126% and 105% | viability, T/C (compound 3.16 µM) 116% and 111% and 93.8% | viability, T/C (compound 10 µM) 83.1% and 86.1% and 71.5%

CC(=O)O[C@H]1C(=O)[C@@]2(C)[C@H]([C@H](OC(=O)c3ccccc3)[C@]3(O)C[C@H](OC(=O)[C@H](O)[C@@H](NC(=O)c4ccccc4)c4ccccc4)C(C)=C1C3(C)C)[C@]1(OC(C)=O)CO[C@@H]1C[C@@H]2O
inactive: viability, T/C (compound 0.00949 µM) 51.9% and 53.3% and 40.6% | viability, T/C (compound 0.03 µM) 51% and 60.1% and 33.6% | viability, T/C (compound 0.0949 µM) 54.7% and 51.5% and 37.1% | viability, T/C (compound 0.3 µM) 52.4% and 50.6% and 36.6% | viability, T/C (compound 0.949 µM) 43.7% and 49.6% and 35.6% | viability, T/C (compound 3 µM) 49.5% and 56.1% and 39%

CC1COCCN1c1cc(-c2ccnn2C)c2ccnc(-c3ccn[nH]3)c2n1 (configuration not stated) + COC1C(OC(N)=O)C(O)C(Oc2ccc3c(O)c(NC(=O)c4ccc(O)c(CC=C(C)C)c4)c(=O)oc3c2C)OC1(C)C
6.67: pIC50 (curve of first compound, second compound 0.0316 µM)
6.79: pIC50 (curve of first compound, second compound 0.1 µM)
6.47: pIC50 (curve of first compound, second compound 3.16 µM)
6.77: pIC50 (curve of first compound, second compound 0.316 µM)
inactive: viability, T/C (second compound 0.0316 µM, first compound 0.0316 µM) 97.8% | viability, T/C (second compound 0.0316 µM, first compound 0.1 µM) 56.2% | viability, T/C (second compound 0.0316 µM, first compound 0.316 µM) 46.4% | viability, T/C (second compound 0.0316 µM, first compound 1 µM) 45% | viability, T/C (second compound 0.0316 µM, first compound 3.16 µM) 31.5% | viability, T/C (second compound 0.0316 µM, first compound 10 µM) 30% | viability, T/C (second compound 0.1 µM, first compound 0.0316 µM) 79% | viability, T/C (second compound 0.1 µM, first compound 0.1 µM) 53.3% | viability, T/C (second compound 0.1 µM, first compound 0.316 µM) 40.4% | viability, T/C (second compound 0.1 µM, first compound 1 µM) 41.7% | viability, T/C (second compound 0.1 µM, first compound 3.16 µM) 34.1% | viability, T/C (second compound 0.1 µM, first compound 10 µM) 25.9% | viability, T/C (second compound 0.316 µM, first compound 0.0316 µM) 90.5% | viability, T/C (second compound 0.316 µM, first compound 0.1 µM) 55.5% | viability, T/C (second compound 0.316 µM, first compound 0.316 µM) 39.6% | viability, T/C (second compound 0.316 µM, first compound 1 µM) 45.2% | viability, T/C (second compound 0.316 µM, first compound 3.16 µM) 38.2% | viability, T/C (second compound 0.316 µM, first compound 10 µM) 28.6% | viability, T/C (second compound 1 µM, first compound 0.0316 µM) 77.2% | viability, T/C (second compound 1 µM, first compound 0.1 µM) 58.6% | viability, T/C (second compound 1 µM, first compound 0.316 µM) 48% | viability, T/C (second compound 1 µM, first compound 1 µM) 40.9% | viability, T/C (second compound 1 µM, first compound 3.16 µM) 36.2% | viability, T/C (second compound 1 µM, first compound 10 µM) 25.9% | viability, T/C (second compound 3.16 µM, first compound 0.0316 µM) 71.5% | viability, T/C (second compound 3.16 µM, first compound 0.1 µM) 59.5% | viability, T/C (second compound 3.16 µM, first compound 0.316 µM) 48.8% | viability, T/C (second compound 3.16 µM, first compound 1 µM) 42.8% | viability, T/C (second compound 3.16 µM, first compound 3.16 µM) 35.3% | viability, T/C (second compound 3.16 µM, first compound 10 µM) 26.4% | viability, T/C (second compound 10 µM, first compound 0.0316 µM) 79% | viability, T/C (second compound 10 µM, first compound 0.1 µM) 55.8% | viability, T/C (second compound 10 µM, first compound 0.316 µM) 49.7% | viability, T/C (second compound 10 µM, first compound 1 µM) 43.6% | viability, T/C (second compound 10 µM, first compound 3.16 µM) 34.2% | viability, T/C (second compound 10 µM, first compound 10 µM) 27.5%
6.54: pIC50 (curve of first compound, second compound 10 µM)
6.53: pIC50 (curve of first compound, second compound 1 µM)

CCc1cc2c(N3CCc4c(cc(Cn5ccnc5)cc4-c4cn(C)nc4C(F)(F)F)C3=O)cc(C)nc2c(OC)n1
inactive: viability, T/C (compound 0.0316 µM) 103% and 102% and 111% | viability, T/C (compound 0.1 µM) 116% and 114% and 108% | viability, T/C (compound 0.316 µM) 123% and 119% (2×) | viability, T/C (compound 1 µM) 132% and 112% and 96.6% | viability, T/C (compound 3.16 µM) 118% and 106% and 84.9% | viability, T/C (compound 10 µM) 84.3% and 82.2% and 71.1%
< 5.00: pIC50 (curve of compound)

COc1cccc(OCCCN)c1-c1cc(Nc2cnc(C#N)cn2)n[nH]1
7.85 and 7.09 and 7.39: pIC50 (curve of compound)
inactive: viability, T/C (compound 0.00316 µM) 93.9% and 84.5% and 84.6% | viability, T/C (compound 0.01 µM) 53.2% and 89.7% and 71.7% | viability, T/C (compound 0.0316 µM) 42.5% and 62.6% and 50.3% | viability, T/C (compound 0.1 µM) 34.7% and 51.5% and 47.2% | viability, T/C (compound 0.316 µM) 37.9% and 47.7% and 42.3% | viability, T/C (compound 1 µM) 34.4% and 42.8% and 40.6%
